The record followed here is patent US8802726B2, “Use of nitrooxyderivative of drug for the treatment of muscular dystrophies” (Nicox S.A., priority 2006, dated 2014).

Marks after values point to notes of the source that are not given here.

Assay [1] concerns α-sarcoglycan (SG)-null C57BL/6 mice. The assay is described as follows: Histology of diaphragm and tibialis anterior (inflammatory infiltrates, necrotic fibres), muscular dystrophy model. The assay is classed as in vivo. Particulars: for Overall effect on histological, functional and biochemical alterations (in words): α-SG-null mice, 20 to 80 days, summary of tables 1 and 2. The protocol:
(§1) Muscular Dystrophy Model (α-Sarcoglycan-Deficient Mice)
(§2) • 2-acetyloxy benzoic acid 3-(nitrooxymethyl)benzoate of formula (Ib); • pravastatin 4-(nitrooxy)butyl ester which of formula (XXXVb); • 2-fluoro-alfa-methyl-4[1,1′-biphenyl]4-acetic acid 4-nitrooxybutyl ester of formula (IIIb); • prednisolone as reference corticosteroid drug. […] At indicated time-points (ranging from 20 to 80 days) skeletal muscle function was tested by the free wheel test. 24 hours later animals were sacrificed, tissue isolated and histological characteristics analysed. Infiltrates were assessed after staining with the Azan Mallory technique; Necrotic fibres were measured in hematoxilin-stained sections; creatin kinase was measured using a commercially available kit on blood samples obtained 24 hours prior to the wheel test. […] Free Wheel Running: Voluntary wheel running was used as the exercise paradigm to avoid any physiological changes that may occur due to the stress of forced treadmill running. Mice were housed singly for a 24 hour period in a polycarbonate running wheel equipped with a magnetic counter, the output of which was sent to a speedometer, allowing quantification of the number of revolutions per day. Creatine Kinase Activity Measurements: quantitative and kinetic determination of creatine kinase activity in serum of control and drug treated-animals was measured using creatine kinase reagent (Sigma), according to the manufacturer's instructions. Blood was collected from tail of 2-7 months-old mice and serum obtained after centrifugation at 13.000 rpm for 10 minutes was stored at −80° C. before measurements. Histology: Diaphragm and tibialis anterior of untreated and drug-treated mice were isolated and included in Killik frozen section medium, quickly frozen and cut into 8-μm thick sections with the muscle fibres oriented transversely using a cryostat. Sections were stained with either Hematoxylin & Eosin or Azan Mallory, to evaluate the number of inflammatory infiltrates and necrotic fibres ([…] for tissue).

The test system is the same in assay [2]. Nature of the assay: Creatine kinase activity measurements in serum, muscular dystrophy model. The format is in vivo. As to conditions: daily in the diet, Ib 100, XXXVb 12, IIIb 30, prednisolone 3 mg/kg. Here is the method: as §1, §2
The test system is the same in assay [3]. The assay is described as follows: Free wheel running test (voluntary wheel running), muscular dystrophy model. As to conditions: daily in the diet. The format is in vivo. Here is the method: as §1, §2
The subject of assay [4] is α-SG-null mice. Nature of the assay: In vivo functional test: resistance to fatigue (exhaustion) by treadmill. Particulars: for Extent of the benefit (%) on exhaustion time, treated vs untreated mice: in the diet. Here is the method:
The effectiveness of naproxcinod, isosorbide dinitrate (ISD) alone and in combination with ibuprofen, molsidomine and prednisolone were evaluated using a test of functional recovery in a mouse model of muscular dystrophy (α-SG-null mice). The experiments to assess the functional recovery in α-SG-null mice were performed according to the following experimental protocol. All experiments and functional evaluations were performed by the same operator in the same laboratory.
α-SG-null mice were housed in a pathogen-free facility, treated in accordance with the European Community Guidelines and with the approval of the Institutional Ethical Committee. Mice were given the following treatments: 3 mg/kg of molsidomine, 30 mg/kg of naproxcinod, 30 mg/kg of ISD alone and in combination with 50 mg/kg of ibuprofen, or 2 mg/kg of prednisolone incorporated in the diet. Control groups received the same diet without any drugs. Standard diet and diets containing the drugs were prepared based on the daily food intake of 3 g. Mice were treated starting at 1 month of age.
Analyses were carried out using a six-lane motorized treadmill (Exeter 3/6 treadmill, Columbus Instruments, OH, USA) supplied with shocker plates. The initial trials were performed at low intensity and for a short duration of time to get mice accustomed to the exercise; the treadmill was then run without inclination at 5 m/min for 5 min, after which the speed was increased 1 m/min every 3 min until a speed of 10 m/min was reached. The test was stopped when the mouse remained on the shocker for 20 sec without attempting to reengage the treadmill.
The extent of benefit (%) is expressed as the percent of the improvement of treated mice (diet containing the drug) compared to untreated mice (standard diet) on the exhaustion time.

Where [5] appears, read: 20 days of treatment, Ib 100, XXXVb 12, IIIb 30, prednisolone 3 mg/kg.
[6] abbreviates: 80 days of treatment, daily in the diet, Ib 100 mg/kg, XXXVb 12 mg/kg, IIIb 30 mg/kg, prednisolone 3 mg/kg.
Where [7] appears, read: 80 days of treatment, daily in the diet, Ib 100 mg/kg, XXXVb 12 mg/kg, IIIb 30 mg/kg, prednisolone 3 mg/kg, Azan Mallory staining.
Where [8] appears, read: 40 days of treatment, Ib 100, XXXVb 12 mg/kg.
Where [9] appears, read: 60 days of treatment, Ib 100, XXXVb 12 mg/kg.

Take `CC(C(=O)OCCCCO[N+](=O)[O-])c1ccc(-c2ccccc2)c(F)c1` (centres unmarked) [(IIIb), 2-fluoro-alfa-methyl-4[1,1′-biphenyl]4-acetic acid 4-nitrooxybutyl ester]: the “N° of inflammatory Infiltrates/section” value in assay [1] (mouse, in vivo) is recorded as 84.2 ± 22.5. For the same compound, in assay [1] (mouse, in vivo), the “N° of necrotic Fibres/section” value was 48.4 ± 2.3. Also, in assay [1] (daily in the diet), the “Overall effect on histological, functional and biochemical alterations (in words)” value (shortened to “Overall effect on histological”) was “significantly effective in reducing the histological, functional and biochemical alterations”. The CK plasma level is on record as 662.6 ± 41 U/ml in assay [2] (20 days of treatment), 824.0 ± 90.5 U/ml in assay [2] (40 days of treatment), 648.2 ± 25.2 U/ml in assay [2] (60 days of treatment) and 482.3 ± 51.2 U/ml in assay [2] (80 days of treatment). The Free wheel test in assay [3] (setting [5]) was 0.95 ± 0.1 km/24 h.

Consider `CCOC(=O)[N-]c1cn(N2CCOCC2)n[o+]1` [molsidomine], for which, in assay [4] (8 months of treatment, molsidomine 3 mg/kg, ISD 30 mg/kg, ibuprofen 50 mg/kg), the “Extent of the benefit (%) on exhaustion time, treated vs untreated mice” value (from here on “Extent of the benefit (%)”) amounted to 63%.

Turning to `COc1ccc2cc([C@H](C)C(=O)OCCCCO[N+](=O)[O-])ccc2c1` [naproxcinod], the “Extent of the benefit (%)” value in assay [4] (4 months of treatment, naproxcinod 30 mg/kg, ISD 30 mg/kg, ibuprofen 50 mg/kg) is given as 150%. In addition, in assay [4] (compared to molsidomine, ISD alone, ISD and ibuprofen, or prednisolone), the “Amelioration of muscle function (in words)” value is reported as “superior amelioration of the muscle function”.

As for `CC(=O)Oc1ccccc1C(=O)Oc1cccc(CO[N+](=O)[O-])c1` [(Ib), 2-(acetyloxy)benzoic acid 3-(nitrooxymethyl)phenyl ester], the “N° of necrotic Fibres/section” value in assay [1] (setting [6]) was 124.1 ± 33. Moreover, the “N° of inflammatory Infiltrates/section” value in assay [1] (setting [7]) is 91.3 ± 34.5. Further, the “Overall effect on histological” value in assay [1] (daily in the diet) was “significantly effective in reducing the histological, functional and biochemical alterations”. The CK plasma level stood at 665.6 ± 51 U/ml in assay [2] (20 days of treatment), 944.0 ± 95.5 U/ml in assay [2] (40 days of treatment), 444.2 ± 20.2 U/ml in assay [2] (60 days of treatment) and 494.6 ± 56.1 U/ml in assay [2] (80 days of treatment). Also, the Free wheel test in assay [3] (setting [5]) is 0.65 ± 0.07 km/24 h; in assay [3] (setting [8]), 0.42 ± 0.08 km/24 h; in assay [3] (setting [9]), 0.31 ± 0.1 km/24 h.

As for `CC[C@H](C)C(=O)O[C@H]1C[C@H](O)C=C2C=C[C@H](C)[C@H](CCC(O)C[C@H](O)CC(=O)OCCCCO[N+](=O)[O-])[C@H]21` (relative stereo) [(XXXVb), [1S-[1α(βS*,δS*),2α,6α,8β-(R*),8aα]]-1,2,6,7,8,8a-hexahydro-β,δ,6-trihydroxy-2-methyl-8-(2-methyl-1-oxobutoxy)-1-naphthaleneheptanoic acid 4-(nitrooxy)butyl ester], in assay [1] (setting [6]), the “N° of necrotic Fibres/section” value is listed as 35 ± 2.1. The “N° of inflammatory Infiltrates/section” value in assay [1] (setting [7]) came to 54.2 ± 8.05. For the same compound, the “Overall effect on histological” value in assay [1] (daily in the diet) is “significantly effective in reducing the histological, functional and biochemical alterations”. In addition, the CK plasma level is listed as 440.6 ± 33**^ U/ml in assay [2] (20 days of treatment), 488.2 ± 96.5 U/ml in assay [2] (40 days of treatment), 627.4 ± 69.3 U/ml in assay [2] (60 days of treatment) and 614.8 ± 37**^ U/ml in assay [2] (80 days of treatment). The Free wheel test is recorded as 0.55 ± 0.03 km/24 h in assay [3] (setting [5]); 0.58 ± 0.01 km/24 h in assay [3] (setting [8]); 0.54 ± 0.03 km/24 h in assay [3] (setting [9]); 0.65 ± 0.05 km/24 h in assay [3] (80 days of treatment, XXXVb 12 mg/kg).

Take `C[C@]12C=CC(=O)C=C1CC[C@@H]1[C@@H]2[C@@H](O)C[C@@]2(C)[C@H]1CC[C@]2(O)C(=O)CO` [Prednisolone, prednisolone, reference compound]: in assay [1] (setting [6]), the “N° of necrotic Fibres/section” value is 197.1 ± 23. In assay [1] (setting [7]), the “N° of inflammatory Infiltrates/section” value was found to be 59.4 ± 7.00. In addition, the CK plasma level in assay [2] (20 days of treatment) is recorded as 440.6 ± 33**^ U/ml; in assay [2] (40 days of treatment), 488.2 ± 96.5 U/ml; in assay [2] (60 days of treatment) it was 711.3 ± 69.3 U/ml; in assay [2] (80 days of treatment), 717.6 ± 31.1 U/ml. The compound further displayed a Free wheel test in assay [3] (setting [5]) of 0.55 ± 0.1 km/24 h. Besides, the “Extent of the benefit (%)” value was determined as 117% in assay [4] (6 months of treatment, prednisolone 2 mg/kg) and 100% in assay [4] (12 months of treatment, prednisolone 2 mg/kg).
